Measurements from ChEMBL document CHEMBL1201862, “PubChem BioAssay data set” (2004).
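Cells were grown in 96-well plates and exposed to each compound for 48 hours at five concentrations; endpoints were interpolated linearly between bracketing concentrations, or set to the highest concentration if not reached. The concentration for 50% growth inhibition is given as GI50.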 Calls of active or inactive are those of the source. Rule as the data show it: active = GI50 up to about 1.1 µM and inactive = higher.

Legend:
Experiment in all cases: NCI anticancer screen, dose series, 48 h
UACC-62 = tested on: UACC-62
OVCAR-3 = tested on: OVCAR-3
HCC 2998 = tested on: HCC 2998
SF-539 = tested on: SF-539
HL-60 = tested on: HL-60
M19-MEL = tested on: M19-MEL
LOX IMVI = tested on: LOX IMVI
KM-20L2 = tested on: KM-20L2
UO-31 = tested on: UO-31
SK-MEL-28 = tested on: SK-MEL-28
HT-29 = tested on: HT-29
SK-MEL-2 = tested on: SK-MEL-2
DLD-1 = tested on: DLD-1
Malme-3M = tested on: Malme-3M
786-0 = tested on: 786-0
NCI-H226 = tested on: NCI-H226
HOP-18 = tested on: HOP-18

Measured: GI50

CC1CC2C3CCC4=CC(=O)C=CC4(C)C3(F)C(O)CC2(C)C1(O)C(=O)CO.Cc1cc(NS(=O)(=O)c2ccc(/N=N\c3cc(/N=N/c4ccc(S(=O)(=O)Nc5cc(C)nc(C)n5)cc4)c(OC(=O)C(Cl)Cl)c4cccc(NC(=O)C(Cl)Cl)c34)cc2)nc(C)n1
inactive: UACC-62 23.9 µM | OVCAR-3 18.6 µM | HCC 2998 18.4 µM | SF-539 20.9 µM | HL-60 16 µM | M19-MEL 30.8 µM | LOX IMVI 19.2 µM | KM-20L2 25.6 µM | UO-31 19.8 µM | SK-MEL-28 27 µM | HT-29 24.4 µM | SK-MEL-2 29.4 µM | DLD-1 18 µM | Malme-3M 20.6 µM | 786-0 18 µM | NCI-H226 22.2 µM | HOP-18 18.8 µM

COC(=O)[C@@]12C=CC(=O)[C@H]3C[C@@H](C(C(C)C)C1)[C@]32OC (stereo not given in full)
inactive: UACC-62 > 100 µM | OVCAR-3 > 100 µM | HCC 2998 > 100 µM | SF-539 > 100 µM | HL-60 > 100 µM | M19-MEL > 100 µM | KM-20L2 > 100 µM | SK-MEL-28 > 100 µM | HT-29 > 100 µM | SK-MEL-2 > 100 µM | DLD-1 > 100 µM | Malme-3M > 100 µM | 786-0 > 100 µM | HOP-18 > 100 µM

Cc1cc2c(=O)cc(-c3ccc(C(=O)O)cc3)oc2c(C(=O)O)c1C
inactive: UACC-62 > 100 µM | OVCAR-3 > 100 µM | HCC 2998 > 100 µM | SF-539 > 100 µM | HL-60 > 100 µM | M19-MEL > 100 µM | LOX IMVI > 100 µM | KM-20L2 > 100 µM | UO-31 > 100 µM | SK-MEL-28 > 100 µM | HT-29 > 100 µM | SK-MEL-2 > 100 µM | DLD-1 > 100 µM | Malme-3M > 100 µM | 786-0 > 100 µM | NCI-H226 > 100 µM | HOP-18 > 100 µM

COc1ccc(OC)c2c(C(=O)O)c(C(C)c3ccccc3)ccc12 (stereo not given)
inactive: UACC-62 > 100 µM | OVCAR-3 > 100 µM | HCC 2998 > 100 µM | HL-60 > 100 µM | M19-MEL > 100 µM | LOX IMVI > 100 µM | KM-20L2 > 100 µM | UO-31 > 100 µM | SK-MEL-28 > 100 µM | HT-29 > 100 µM | SK-MEL-2 > 100 µM | DLD-1 > 100 µM | Malme-3M > 100 µM | 786-0 > 100 µM | NCI-H226 > 100 µM | HOP-18 > 100 µM

COC(=O)C(C(=O)C(=O)Nc1ccc(Br)cc1)c1nc2ccc(Cl)cc2nc1O (stereo not given)
inactive: UACC-62 > 100 µM | OVCAR-3 > 100 µM | HCC 2998 > 100 µM | SF-539 > 100 µM | HL-60 > 83.2 µM | M19-MEL > 100 µM | LOX IMVI > 76.7 µM | KM-20L2 > 100 µM | UO-31 > 82.4 µM | SK-MEL-28 > 100 µM | HT-29 > 48 µM | SK-MEL-2 > 100 µM | DLD-1 > 100 µM | Malme-3M > 100 µM | 786-0 > 100 µM | NCI-H226 61 µM | HOP-18 > 100 µM

C[C@]12CCC[C@H](O)[C@H]1C[C@H](CO)CC2
inactive: UACC-62 > 100 µM | OVCAR-3 > 100 µM | HCC 2998 > 100 µM | SF-539 > 100 µM | HL-60 > 100 µM | M19-MEL > 100 µM | LOX IMVI > 100 µM | KM-20L2 > 100 µM | UO-31 > 100 µM | SK-MEL-28 > 100 µM | HT-29 > 100 µM | SK-MEL-2 > 100 µM | DLD-1 > 100 µM | Malme-3M > 100 µM | 786-0 > 100 µM | NCI-H226 > 100 µM | HOP-18 > 100 µM

Sc1ncnc2c1ncn2C1CCCO1 (stereo not given)
inactive: UACC-62 76.2 µM | OVCAR-3 22.6 µM | HCC 2998 > 100 µM | SF-539 > 100 µM | HL-60 > 100 µM | LOX IMVI 37.6 µM | KM-20L2 > 100 µM | UO-31 > 100 µM | SK-MEL-28 > 100 µM | HT-29 > 100 µM | SK-MEL-2 > 100 µM | DLD-1 89.9 µM | Malme-3M > 100 µM | 786-0 > 100 µM | HOP-18 > 100 µM

COc1ccc2oc3cccc(NCCN(C)C)c3c(=O)c2c1
inactive: UACC-62 12.7 µM | OVCAR-3 14.7 µM | HCC 2998 8.65 µM | SF-539 14.3 µM | HL-60 9.68 µM | M19-MEL 15.3 µM | LOX IMVI 10.6 µM | KM-20L2 9.14 µM | UO-31 8.3 µM | SK-MEL-28 18.2 µM | HT-29 7.83 µM | SK-MEL-2 16.5 µM | DLD-1 13.1 µM | Malme-3M 15.6 µM | 786-0 10.9 µM | NCI-H226 16.2 µM | HOP-18 11.6 µM
